This note sets out measurements from ChEMBL document CHEMBL5150003, “Why All the Fury over Furin?” (J Med Chem, 2022).

The target in data set [1] is T1, Furin (Homo sapiens, UniProt P09958). Briefly: Inhibition of furin (unknown origin).
A short description of data set [2]: Dissociation constant, pKa of the compound. It counts as physicochemical.
For data set [3], the system named is Mus musculus. Briefly: Antifibrotic activity against bleomycin-induced mouse lung fibrosis model assessed as inhibition of hydroxyproline content in lung at 10 mg/kg, ip administered once daily. It counts as functional.
Data set [4] addresses T1, Furin. Briefly: Inhibition of furin in human U2OS cells measured after 24 hrs by fluorescence assay. It counts as cell-based.
The subject of data set [5] is Mus musculus. Briefly: Antifibrotic activity against bleomycin-induced mouse lung fibrosis model assessed as inhibition of TGF-beta secretion in lung at 10 mg/kg, ip administered once daily. It counts as functional.
Data set [6] deals with T1, Furin. Briefly: Inhibition of soluble human furin using boc-RVRR-MCA as substrate incubated for 45 mins and measured by fluorescence assay.
In data set [7] the test system is Mus musculus. Briefly: Antifibrotic activity against bleomycin-induced mouse lung fibrosis model assessed as inhibition of hydroxyproline content in lung at 10 mg/kg, ip administered twice daily. It counts as functional.
For data set [8], the system named is Mus musculus. Briefly: Antifibrotic activity against bleomycin-induced mouse lung fibrosis model assessed as inhibition of TGF-beta secretion in lung at 10 mg/kg, ip administered twice daily. It counts as functional.
In data set [9] the target is T1, Furin. Briefly: Inhibition of recombinant human furin protease.
In a further data set the test system is Vero. Briefly: Protective activity against Escherichia coli O157:H7 Shiga toxin-induced cytotoxicity in monkey Vero cells measured by LDH assay. It counts as functional, cell-based. The settings on record: Chlorocebus sabaeus.
A short description of data set [10]: Stability in mouse plasma assessed as compound remaining measured after 24 hrs. It counts as ADME, cell-free. The conditions noted are these: read-out: Stability.
Data set [11] can be described thus: Stability in mouse plasma assessed as half-life. It counts as ADME, cell-free.
Data set [12] has as its system Mus musculus. Briefly: Antifibrotic activity against bleomycin-induced mouse lung fibrosis model assessed as inhibition of TGF-beta secretion in lung at 10 mg/kg, po administered once daily. It counts as functional.
Data set [13] deals with T1, Furin. Briefly: Inhibition of Tev-FLAG-His-tagged furin (108 to 574 residues) (unknown origin) using FAM-QRVRRAVGIDK-TAMRA as substrate and measured after 2 hrs.
Data set [14] concerns Mus musculus. Briefly: Antifibrotic activity against bleomycin-induced mouse lung fibrosis model assessed as inhibition of hydroxyproline content in lung at 10 mg/kg, po administered once daily. It counts as functional.
Data set [15] can be described thus: Inhibition of porcine trypsin using Mes-DArg-Gly-Arg-AMC as substrate and measured by fluorescence assay. More on the design: species or system Sus scrofa.
The nature of data set [16]: Inhibition of human papilloma virus-11 replication in HEK293 cells measured by transient DNA replication assay. It counts as functional, cell-based. The conditions noted are these: human papillomavirus 11, HEK293.
Data set [17] has as its target T1, Furin. Briefly: Inhibition of recombinant human furin using Phac-Arg-Val-Arg-Arg-AMC as substrate incubated for 30 mins and measured by microplate reader method.
The next data set concerns the target Plasminogen (Homo sapiens, UniProt P00747). Briefly: Inhibition of human plasmin using Mes-DArg-Phe-Arg-AMC as substrate and measured by fluorescence assay.
In the next data set the target is Coagulation factor X (Homo sapiens, UniProt P00742). Briefly: Inhibition of human fXa using Mes-DArg-Pro-Arg-AMC as substrate and measured by fluorescence assay.
For a further data set, the target named is Prothrombin (Bos taurus, UniProt P00735). Briefly: Inhibition of bovine thrombin using Tos-Gly-Pro-Arg-AMC as substrate and measured by fluorescence assay.
Data set [18] deals with T2, Proprotein convertase subtilisin/kexin type 6 (Homo sapiens, UniProt P29122).
T2 sequence (P29122 whole entry): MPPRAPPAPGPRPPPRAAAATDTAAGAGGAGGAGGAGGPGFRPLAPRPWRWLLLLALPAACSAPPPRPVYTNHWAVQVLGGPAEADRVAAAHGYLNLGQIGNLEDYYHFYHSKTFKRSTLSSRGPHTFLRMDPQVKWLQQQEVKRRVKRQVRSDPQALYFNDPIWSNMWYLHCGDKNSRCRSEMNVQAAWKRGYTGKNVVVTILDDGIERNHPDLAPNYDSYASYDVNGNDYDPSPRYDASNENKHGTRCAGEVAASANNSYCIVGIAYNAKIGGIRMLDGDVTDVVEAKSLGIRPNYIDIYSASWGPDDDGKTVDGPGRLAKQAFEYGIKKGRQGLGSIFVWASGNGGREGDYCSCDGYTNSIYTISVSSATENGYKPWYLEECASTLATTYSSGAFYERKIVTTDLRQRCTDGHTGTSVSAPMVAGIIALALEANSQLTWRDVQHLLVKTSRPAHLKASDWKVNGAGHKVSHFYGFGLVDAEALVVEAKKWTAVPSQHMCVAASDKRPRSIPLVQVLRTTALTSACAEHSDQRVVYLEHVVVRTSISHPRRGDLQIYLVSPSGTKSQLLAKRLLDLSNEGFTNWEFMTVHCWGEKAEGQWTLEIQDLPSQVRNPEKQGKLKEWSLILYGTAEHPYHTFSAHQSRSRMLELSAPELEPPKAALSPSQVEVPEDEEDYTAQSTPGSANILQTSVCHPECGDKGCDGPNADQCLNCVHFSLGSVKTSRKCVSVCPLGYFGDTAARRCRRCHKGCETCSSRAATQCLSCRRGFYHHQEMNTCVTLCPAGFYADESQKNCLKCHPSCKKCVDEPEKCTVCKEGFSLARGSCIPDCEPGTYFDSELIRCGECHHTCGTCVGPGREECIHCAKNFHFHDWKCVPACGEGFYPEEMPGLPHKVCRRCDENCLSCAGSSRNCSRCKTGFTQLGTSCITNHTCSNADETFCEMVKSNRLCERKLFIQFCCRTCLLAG
Briefly: Inhibition of PACE4 (unknown origin).

SMILES strings stand for the structures. Peptide text beside a SMILES is read from it. Bounds are passed on as bounds.

T1 sequence (P09958 whole entry): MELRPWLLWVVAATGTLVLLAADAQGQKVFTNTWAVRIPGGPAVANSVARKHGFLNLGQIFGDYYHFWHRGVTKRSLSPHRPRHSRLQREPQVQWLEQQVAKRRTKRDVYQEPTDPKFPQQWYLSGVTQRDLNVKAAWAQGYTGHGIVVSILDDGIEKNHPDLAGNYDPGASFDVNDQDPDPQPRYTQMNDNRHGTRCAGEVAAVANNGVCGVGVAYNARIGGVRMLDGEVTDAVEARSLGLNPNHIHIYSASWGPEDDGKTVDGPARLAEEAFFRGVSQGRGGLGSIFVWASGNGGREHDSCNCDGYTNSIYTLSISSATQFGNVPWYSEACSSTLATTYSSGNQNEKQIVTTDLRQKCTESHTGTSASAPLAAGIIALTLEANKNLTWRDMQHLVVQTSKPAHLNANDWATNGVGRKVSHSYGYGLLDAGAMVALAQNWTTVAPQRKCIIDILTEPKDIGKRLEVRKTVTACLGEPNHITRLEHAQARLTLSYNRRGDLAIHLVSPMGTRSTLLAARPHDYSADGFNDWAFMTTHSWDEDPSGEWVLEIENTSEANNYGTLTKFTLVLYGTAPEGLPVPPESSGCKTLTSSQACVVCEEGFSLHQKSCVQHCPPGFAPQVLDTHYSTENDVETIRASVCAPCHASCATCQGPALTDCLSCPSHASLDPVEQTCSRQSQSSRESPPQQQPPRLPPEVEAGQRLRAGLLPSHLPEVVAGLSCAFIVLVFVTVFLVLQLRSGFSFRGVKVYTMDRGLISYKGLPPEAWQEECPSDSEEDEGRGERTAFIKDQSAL
Chain of Plasminogen (P00747 97-580 limits assumed): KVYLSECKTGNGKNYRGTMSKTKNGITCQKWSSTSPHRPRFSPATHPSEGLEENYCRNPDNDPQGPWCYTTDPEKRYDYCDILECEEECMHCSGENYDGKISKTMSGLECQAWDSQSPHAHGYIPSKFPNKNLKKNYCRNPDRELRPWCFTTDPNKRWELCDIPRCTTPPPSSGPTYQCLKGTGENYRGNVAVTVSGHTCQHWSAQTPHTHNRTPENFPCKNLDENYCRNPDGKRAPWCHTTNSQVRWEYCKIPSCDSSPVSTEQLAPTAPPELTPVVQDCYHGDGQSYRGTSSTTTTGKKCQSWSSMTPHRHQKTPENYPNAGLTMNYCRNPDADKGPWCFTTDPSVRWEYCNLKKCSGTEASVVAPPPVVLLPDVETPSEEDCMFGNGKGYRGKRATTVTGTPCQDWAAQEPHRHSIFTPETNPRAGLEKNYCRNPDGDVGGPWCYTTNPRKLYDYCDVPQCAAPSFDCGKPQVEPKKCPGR
Chain of Plasminogen (P00747 581-810 limits assumed): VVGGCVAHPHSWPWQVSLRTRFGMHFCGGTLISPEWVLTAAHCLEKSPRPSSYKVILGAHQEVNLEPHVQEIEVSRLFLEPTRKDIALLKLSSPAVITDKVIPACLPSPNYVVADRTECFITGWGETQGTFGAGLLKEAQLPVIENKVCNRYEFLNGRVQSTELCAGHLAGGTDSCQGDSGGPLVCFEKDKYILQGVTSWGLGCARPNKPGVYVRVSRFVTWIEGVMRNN
Chain of Coagulation factor X (P00742 41-179 limits assumed): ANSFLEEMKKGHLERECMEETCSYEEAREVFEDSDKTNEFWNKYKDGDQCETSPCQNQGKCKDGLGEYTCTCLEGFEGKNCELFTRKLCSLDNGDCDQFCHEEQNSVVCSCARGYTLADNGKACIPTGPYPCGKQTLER
Chain of Coagulation factor X (P00742 235-488 limits assumed): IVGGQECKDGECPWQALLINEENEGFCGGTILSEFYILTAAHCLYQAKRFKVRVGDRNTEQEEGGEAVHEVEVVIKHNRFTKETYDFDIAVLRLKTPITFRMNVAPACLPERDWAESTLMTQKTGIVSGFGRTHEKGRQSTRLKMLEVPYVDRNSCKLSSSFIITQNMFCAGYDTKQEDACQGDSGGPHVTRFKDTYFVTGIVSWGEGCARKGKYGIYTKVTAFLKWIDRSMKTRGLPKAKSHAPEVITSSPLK

On Furin [1], `CC(C)(C)[C@H](NC(=O)[C@H](CCCNC(=N)N)NC(=O)Cc1ccc(CNC(=N)N)cc1)C(=O)N[C@@H](CCCNC(=N)N)C(=O)NCc1ccc(CN)cc1` showed an IC50 of 0.00953 µM and a Ki of 2.52 nM. The same compound gave a pKa in [2] of 9.28.

For `CC(=O)NCC1CCN(Cc2cc(Oc3ccc(N4CCN(CCO)CC4)nc3)nc(-c3cc(Cl)cc(Cl)c3)c2)CC1`, the inhibition in vivo at 10 mg/kg was found to be 56% with Mus musculus [3] and 60% in the data set with Mus musculus [5]. On Furin [4], the pXC50 came out at 8.5.

As to `N=C(N)N/N=C/c1ccccc1OCc1ccc(Cl)cc1`, the Ki on Furin [6] was determined as 25.3 µM.

At Furin [1], `CC(C)(C)[C@H](NC(=O)[C@H](CCCNC(=N)N)NC(=O)Cc1ccc(CNC(=N)N)cc1)C(=O)N[C@@H](CCCNC(=N)N)C(=O)NCc1ccc(N)nc1` registered an IC50 of 0.00298 µM and a Ki of 0.8 nM. The pKa in [2] amounted to 6.5.

Consider `CC(=O)NCC1CCN(Cc2cc(Oc3cnc(N4CCN(CCC(=O)O)CC4)nc3)nc(-c3cc(Cl)cc(Cl)c3)c2)CC1`, for which the figures for the inhibition in vivo at 10 mg/kg in the data set with Mus musculus [7] and with Mus musculus [8] were 60% and 86%, respectively. At Furin [4], the pXC50 stood at 8.

In the case of `CC(=O)N[C@@H](CCCNC(=N)N)C(=O)N[C@@H](C)C(=O)N[C@@H](CCCNC(=N)N)C(=O)N[C@@H](CCCNC(=N)N)C(=O)N[C@@H](CCCNC(=N)N)C(=O)N[C@@H](CCCCN)C(=O)N[C@@H](CCCCN)C(=O)N[C@@H](CCCNC(=N)N)C(=O)N[C@H](C(N)=O)[C@@H](C)O`, the Ki on Furin [9] turned out to be 0.019 µM; at Furin [1], 19 nM. Also, the IC50 with Vero is greater than 1000 µM. Moreover, the remaining at 24 h in data set [10] amounted to 5%. Moreover, the half-life in data set [11] is 1.7 h.

On Furin [1], `CC(C)(C)[C@H](NC(=O)[C@H](CCCNC(=N)N)NC(=O)Cc1ccc(CNC(=N)N)cc1)C(=O)N[C@@H](CCCNC(=N)N)C(=O)NCc1ccc(C(=N)N)c(F)c1` returned an IC50 of 0.00056 µM and a Ki of 0.0223 nM. In addition, in [2], the pKa amounted to 9.46.

Consider `CC(=O)NCC1CCN(Cc2cc(Oc3ccc(N4CCN(CC(=O)O)CC4)nc3)nc(-c3cc(Cl)cc(Cl)c3)c2)CC1`, for which the results for the inhibition in vivo at 10 mg/kg with Mus musculus [7] and with Mus musculus [8] were 16% and 43%, respectively. In addition, on Furin [4], the pXC50 was determined as 6.9.

On to `CC(CC1CCN(Cc2cc(Oc3cnc(N4CCN(C)CC4)nc3)nc(-c3cc(Cl)cc(Cl)c3)c2)CC1)C(=O)O` (centres undefined), for which the inhibition in vivo at 10 mg/kg came to 81% with Mus musculus [12] and 54% with Mus musculus [14]. This compound had an IC50 against Furin [13] of 0.000794 µM. Moreover, the pXC50 at Furin [4] stood at 8.

With `CNC(=O)NCC1CCN(Cc2cc(Oc3ccc(N4CCN(CCC(=O)O)CC4)nc3)nc(-c3cc(Cl)cc(Cl)c3)c2)CC1`, the inhibition in vivo at 10 mg/kg was 39% in the data set with Mus musculus [3] and 67% with Mus musculus [5]. The compound further came in with a pXC50 at Furin [4] of 7.6.

`CC(C)(C)[C@H](NC(=O)[C@H](CCCNC(=N)N)NC(=O)Cc1ccc(CNC(=N)N)cc1)C(=O)N[C@@H](CCCNC(=N)N)C(=O)NCc1ccc(C(=N)N)cc1`: the Ki in data set [15] was 0.052 µM.

In the case of `CSc1oc(-c2ccc(Cl)cc2Cl)nc1[P+](c1ccccc1)(c1ccccc1)c1ccccc1`, the IC50 in data set [16] was 1.7 µM. On Furin [1], the Ki is 1570 nM.

As for `CC(C)(C)[C@H](NC(=O)[C@H](CCCONC(=N)N)NC(=O)Cc1ccc(CNC(=N)N)cc1)C(=O)N[C@@H](CCCONC(=N)N)C(=O)NCc1ccc(C(=N)N)cc1`, the Ki in data set [15] was 0.69 µM; at Furin [17], 0.0101 nM; on Plasminogen, greater than 3 µM; at Coagulation factor X it was greater than 3 µM; on Prothrombin, greater than 3 µM.

`CC(=O)NCC1CCN(Cc2cc(Oc3ccc(N4CCN(CCC(=O)O)CC4)nc3)nc(-c3cc(Cl)cc(Cl)c3)c2)CC1`: the inhibition in vivo at 10 mg/kg is 67% in the data set on Mus musculus [7] and 69% with Mus musculus [8]. The compound also came in with a pXC50 on Furin [4] of 7.6.

With `CC(=O)N[C@@H](CC(C)C)C(=O)N[C@@H](CC(C)C)C(=O)N[C@@H](CC(C)C)C(=O)N[C@@H](CC(C)C)C(=O)N[C@@H](CCCNC(=N)N)C(=O)N[C@H](C(=O)N[C@@H](CCCCN)C(=O)N[C@@H](CCCNC(=N)N)C(N)=O)C(C)C` (Ac-LLLLRVKR-NH2), the results for the IC50 (in data set [18]; at Furin [1]) were 0.03 µM and 0.02 µM, respectively.
